Earlier results as cited in US7183291B2 (Council of Scientific and Industrial Research, priority 1999, dated 2007).

Experiments:
[1] = tested on: P. cynomolgi B. infection; conditions: 3.16 mg/kg×3 doses; monkeys; cited from earlier work
[2] = tested on: P. cynomolgi B. infection; conditions: 1 mg/kg×7 days; cited from earlier work
[3] = tested on: rodent malaria; conditions: in vivo; cited from earlier work
[4] = tested on: rodent malaria; conditions: in vivo; cited from earlier work; remark: listed apart in the source
[5] = tested on: erythrocytes; conditions: cited from earlier work
[6] = tested on: rodent malaria; conditions: in vivo; cited from earlier work; remark: listed apart in the source
[7] = tested on: rodent malaria; conditions: given directly to the insect; cited from earlier work

Molecule	blood schizontocidal activity [3]	gametocytocidal activity [4]	other results
COc1cc(NC(C)CCCNC2=C(C(C)=O)CCO2)c2ncccc2c1 (stereo not drawn) [N^1-(3-acetyl-4,5-dihydro-2-furanyl)-N^4-(6-methoxy-8-quinolinyl)-1,4-pentanediamine]	–	–	causal prophylactic activity [1]: causal prophylactic activity; anti-relapse (radical curative) activity [2]: exerts anti-relapse (radical curative) activity
COc1cc(NC(C)CCCN)c2ncccc2c1O (stereo not drawn) [formula (3), 5-hydroxy-6-methoxy-8-(4-amino-1-methylbutylamino) quinoline]	highly active	inactive	oxidation of oxyhemoglobin (HbO2) to methemoglobin (Met Hb) and of reduced glutathione (GSH) [5]: cause oxidation
COC1(O)C=C(NC(C)CCCN)c2ncccc2C1O (stereo not drawn) [formula (4), 5,6-dihydroxy-6-methoxy-8-(4-amino-1-methylbutylamino) quinoline]	highly active	only a slight gametocytocidal activity	–
COc1cc(N)c2ncccc2c1 [formula (10), 6-methoxy-8-aminoquinoline]	no significant activity	–	tissue schizontoidal effect relative to primaquine [6]: two to three times more active than primaquine; direct sporontocidal activity [7]: directly sporontocidal
Nc1cc(O)c(O)c2cccnc12 [formula (11), 5,6-dihydroxy-8-aminoquinoline]	no significant activity	–	tissue schizontoidal effect relative to primaquine [6]: two to three times more active than primaquine; direct sporontocidal activity [7]: directly sporontocidal; oxidation of oxyhemoglobin (HbO2) to methemoglobin (Met Hb) and of reduced glutathione (GSH) [5]: cause oxidation
COc1cc(NC(C)CCC(=O)O)c2ncccc2c1 (stereo not drawn) [formula (12), 8-(3-carboxy-1-methylpropylamino)-6-methoxy quinoline]	–	inactive	methemoglobin formation in vitro ([5]; in vitro): does not cause methemoglobin formation
Desmethyl primaquine [formula (5)]	little	inactive	–
